For one assay, the target named is T1, KRAS-G12D and SOS1 (Homo sapiens, UniProt P01116, G12D).
T1 construct: purchased
The assay can be described thus: Inhibition of KRAS-G12D/SOS1 binding (Cisbio binding kit, 665/615 ratio), Effect Embodiment A. The note with it: read-out: GTP-KRAS-G12D:SOS1 IC50. Put shortly:
(§1)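 Duplicate wells received an eleven-point, threefold compound titration whose top point was the stock solution; final DMSO 1%.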

The target in a further assay is T2, KRAS_G12D and cRAF (Homo sapiens, UniProt P01116, G12D).
T2 construct: purchased
T2 sequence (P01116 1-188 isoform P01116-2 G12D): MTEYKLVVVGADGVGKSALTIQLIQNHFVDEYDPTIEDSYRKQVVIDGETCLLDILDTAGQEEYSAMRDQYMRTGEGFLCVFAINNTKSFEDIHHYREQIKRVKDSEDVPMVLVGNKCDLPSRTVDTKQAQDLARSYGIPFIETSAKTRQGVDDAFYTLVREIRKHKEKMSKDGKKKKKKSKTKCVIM
The assay can be described thus: Inhibition of KRAS_G12D/cRAF binding (Cisbio binding kit, 665/615 ratio), Effect Embodiment B. Particulars: read-out: GTP-KRAS-G12D:CRAF IC50. Put shortly:
as §1

The target of another assay is T3, KRAS_WT and SOS1 (Homo sapiens, UniProt P01116).
T3 construct: purchased
T3 sequence (P01116 1-188 isoform P01116-2): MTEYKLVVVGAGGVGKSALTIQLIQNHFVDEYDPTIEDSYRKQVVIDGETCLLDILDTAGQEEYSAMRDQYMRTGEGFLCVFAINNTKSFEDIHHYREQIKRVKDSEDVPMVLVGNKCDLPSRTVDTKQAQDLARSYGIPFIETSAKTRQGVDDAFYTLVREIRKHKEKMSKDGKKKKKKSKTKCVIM
The assay can be described thus: Inhibition of KRAS_WT/SOS1 binding (Cisbio binding kit, 665/615 ratio), Effect Embodiment C. The note with it: read-out: GTP-KRAS-WT:SOS1 IC50. Put shortly: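 Compounds tested as 3-fold, 11-point dilutions in duplicate at 1% DMSO final against the KRAS_WT/SOS1 binding system. IC50 derived by nonlinear regression fit.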

We go through 14 compounds from patent publication US20230365563A1, “QUINAZOLINE COMPOUND AND APPLICATION THEREOF” (SHANGHAI PHARMACEUTICALS HOLDING CO., LTD., priority 2020, published 2023).

Structures can show the parent of a compound that is named as a salt.

In general, IC50 refers to the concentration that gives 50% inhibition.

T1 sequence (P01116 1-188 isoform P01116-2 G12D): as the sequence (P01116 1-188 isoform P01116-2 G12D) above

Regarding `C[C@@H](COc1nc(N2CC3CCC(C2)N3)c2cc(Cl)c(-c3cc(O)cc4ccccc34)c(F)c2n1)CN1CCO[C@H](C)C1` (single isomer, unassigned) [Compound 242, 4-((S or R)-4-((1R,5S)-3,8-diazacyclo[3.2.1]octan-3-yl)-6-chloro-8-fluoro-2-((R)-2-methyl-3-((R)-2-methylmorpholinyl)propoxy)quinazolin-7-yl)naphthalen-2-ol formate], the IC50 turned out to be 13.7 nM at KRAS-G12D and SOS1; 23.3 nM on KRAS_G12D and cRAF; 731 nM on KRAS_WT and SOS1.

Consider `CCNCCCOc1nc(N2CC3CCC(C2)N3)c2cc(Cl)c(-c3cc(O)cc4ccccc34)c(F)c2n1` (single isomer, unassigned) [Compound 105, dihydrochloride], for which the IC50 on KRAS-G12D and SOS1 was found to be 22.4 nM; at KRAS_G12D and cRAF, 185 nM; on KRAS_WT and SOS1, 3040 nM.

As for `CC(COc1nc(N2CC3CCC(C2)N3)c2cc(Cl)c(-c3cc(O)cc4ccccc34)c(F)c2n1)CN1C2CCC1COC2` (single isomer, unassigned) [Compound 178b, 4-((7R or 7S)-2-((2S or 2R)-3-(3-oxa-8-azabicyclo[3.2.1]octan-8-yl)-2-methylpropoxy)-4-((1R,5S)-3,8-diazabicyclo[3.2.1]octan-3-yl)-6-chloro-8-fluoroquinazolin-7-yl)naphthalen-2-ol dicarboxylate], the IC50 was determined as 39.7 nM at KRAS-G12D and SOS1; 150 nM at KRAS_G12D and cRAF; 1050 nM on KRAS_WT and SOS1.

Take `Oc1cc(-c2c(Cl)cc3c(N4CC5CCC(C4)N5)nc(OCC4CCC5COCCN5C4)nc3c2F)c2ccccc2c1` (single isomer, unassigned) [Compound 264b, 4-((R or S)-4-((1R,5S)-3,8-diazacyclo[3.2.1]octan-3-yl)-6-chloro-8-fluoro-2-((7R or 7S, 9aR or 9aS)-octahydropyridine[2,1-c][1,4]oxazin-7-yl)methoxy)quinazolin-7-yl)naphthalen-2-ol formate]: the IC50 at KRAS-G12D and SOS1 was determined as 19.3 nM; at KRAS_G12D and cRAF, 101 nM; at KRAS_WT and SOS1 it was 196 nM.

Take `Oc1cc(-c2c(Cl)cc3c(N4CC5CCC(C4)N5)nc(N4CCNCC4)nc3c2F)c2ccccc2c1` (single isomer, unassigned) [Compound 57b, 4-((R or S)-4-((1R,5S)-3,8-diazabicyclo[3.2.1]octan-3-yl)-6-chloro-8-fluoro-2-(piperazin-1-yl)quinazolin-7-yl)naphthalen-2-ol]: the IC50 on KRAS-G12D and SOS1 was determined as 419 nM; on KRAS_G12D and cRAF, 7910 nM; at KRAS_WT and SOS1, 44500 nM.

As for `CN(C)CCCCCOc1nc(N2CC3CCC(C2)N3)c2cc(Cl)c(-c3cc(O)cc4ccccc34)c(F)c2n1` (single isomer, unassigned) [Compound 98, 4-((S or R)-4-((1R,5S)-3,8-diazabicyclo[3.2.1]octan-3-yl)-6-chloro-2-((5-(dimethylamino)pentyl)oxy)-8-fluoroquinazolin-7-yl)naphthalen-2-ol carboxylate], the IC50 was 95.3 nM on KRAS-G12D and SOS1; 477 nM on KRAS_G12D and cRAF; 7700 nM at KRAS_WT and SOS1.

As to `Oc1cc(-c2c(Cl)cc3c(N4CC5CCC(C4)N5)nc(OCCCN4CCOCC4)nc3c2F)c2ccccc2c1` (single isomer, unassigned) [Compound 54a, 4-((S or R)-4-((1R,5S)-3,8-diazabicyclo[3.2.1]octan-3-yl)-6-chloro-8-fluoro-2-(3-morpholinopropoxy)quinazolin-7-yl)naphthalen-2-ol], the IC50 at KRAS-G12D and SOS1 was 26.2 nM; on KRAS_G12D and cRAF, 103 nM; at KRAS_WT and SOS1, 1190 nM.

As for `C[C@@H]1COCCN1CCCOc1nc(N2C[C@H]3CC[C@@H](C2)N3)c2cc(Cl)c(-c3cc(O)cc4ccccc34)c(F)c2n1` (single isomer, unassigned) [Compound 181, (R or S)-4-(4-((1R,5S)-3,8-diazabicyclo[3.2.1]octan-3-yl)-6-chloro-8-fluoro-2-(3-((R)-3-methylmorpholinyl)propoxy)quinazolin-7-yl)naphthalen-2-ol diformate], the IC50 on KRAS-G12D and SOS1 was 38.1 nM; at KRAS_G12D and cRAF, 136 nM; at KRAS_WT and SOS1, 3090 nM.

Turning to `Oc1cc(-c2c(Cl)cc3c(N4CC5CCC(C4)N5)nc(OCCN4CCCC(F)C4)nc3c2F)c2ccccc2c1` (single isomer, unassigned) [Compound 267b, 4-((R or S)-4-((1R,5S)-3,8-diazacyclo[3.2.1]octan-3-yl)-6-chloro-8-fluoro-2-(2-((R or S)-3-fluoropiperidin-1-yl)ethoxy)quinazolin-7-yl)naphthalen-2-ol formate], the IC50 at KRAS-G12D and SOS1 came out at 118 nM; at KRAS_G12D and cRAF, 278 nM; on KRAS_WT and SOS1, 4600 nM.

With `CN1CCC2(C1)CN(c1nc(N3CC4CCC(C3)N4)c3cc(Cl)c(-c4cc(O)cc5ccccc45)c(F)c3n1)C2` (single isomer, unassigned) [Compound 61a, 4-((S or R)-4-((1R,5S)-3,8-diazabicyclo[3.2.1]octan-3-yl)-6-chloro-8-fluoro-2-(6-methyl-2,6-diazaspiro[3.4]octan-2-yl)quinazolin-7-yl)naphthalen-2-ol], the IC50 at KRAS-G12D and SOS1 was found to be 230 nM; at KRAS_G12D and cRAF, 1600 nM; on KRAS_WT and SOS1, 68300 nM.

On to `Oc1cc(-c2c(Cl)cc3c(N4CC5CCC(C4)N5)nc(OCCCN4C5CCCC4COC5)nc3c2F)c2ccccc2c1` (single isomer, unassigned) [Compound 177, (R or S)-4-(2-(3-((1R,5S)-3-oxa-9-azabicyclo[3.3.1]nonan-9-yl)propoxy)-4-((1R,5S)-3,8-diazabicyclo[3.2.1]octan-3-yl)-6-chloro-8-fluoroquinazolin-7-yl)naphthalen-2-ol formate], for which the IC50 on KRAS-G12D and SOS1 was 40.5 nM; at KRAS_G12D and cRAF it was 121 nM; on KRAS_WT and SOS1, 1190 nM.

On to `Oc1cc(-c2c(Cl)cc3c(N4CC5CCC(C4)N5)nc(OCCCN4C5CCC4COC5)nc3c2F)c2c(F)c(F)ccc2c1` (single isomer, unassigned) [Compound 248, (4S or 4R)-4-(2-(3-(3-oxa-8-azabicyclo[3.2.1]octan-8-yl)propoxy)-4-(1R,5S)-3,8-diazabicyclo[3.2.1]octan-3-yl)-6-chloro-8-fluoroquinazolin-7-yl)-5,6-difluronaphththalen-2-ol formate], for which the IC50 on KRAS-G12D and SOS1 turned out to be 31.1 nM; at KRAS_G12D and cRAF, 67.2 nM; on KRAS_WT and SOS1, 98.1 nM.

Turning to `Oc1cc(-c2c(Cl)cc3c(N4CC5CCC(C4)N5)nc(OCC4(CN5C6CCC5COC6)COC4)nc3c2F)c2ccccc2c1` (single isomer, unassigned) [Compound 204, 4-((7S or 7R)-2-((3-(3-oxa-8-azabicyclo[3.2.1]octan-8-ylmethyl)oxa-3-yl)methoxy)-4-((1R,5S)-3,8-diazabicyclo[3.2.1]octan-3-yl)-6-chloro-8-fluoroquinazolin-7-yl)naphthalen-2-ol ditrifluoroacetate], the IC50 at KRAS-G12D and SOS1 was 77.4 nM; at KRAS_G12D and cRAF, 121 nM; on KRAS_WT and SOS1 it was 4250 nM.

As to `C#Cc1c(F)ccc2cc(O)cc(-c3c(Cl)cc4c(N5CC6CCC(C5)N6)nc(OCCCN5C6CCC5COC6)nc4c3F)c12` (single isomer, unassigned) [Compound 255b, (4R or 4S)-4-(2-(3-(3-oxa-8-azabicyclo[3.2.1]octan-8-yl)propoxy)-4-(1R,5S)-3,8-diazabicyclo[3.2.1]octan-3-yl)-6-chloro-8-fluoroquinazolin-7-yl)-5-ethynyl-6-fluoronaphthalen-2-ol diformate], the half-maximal inhibitory concentration (IC50) at KRAS-G12D and SOS1 is 4.32 nM; at KRAS_G12D and cRAF, 13.2 nM; on KRAS_WT and SOS1, 75.6 nM.
